According to ChEMBL document CHEMBL4145459, “Synthesis of (3S,4S,5S)-trihydroxylpiperidine derivatives as enzyme stabilizers to improve therapeutic enzyme activity in Fabry patient cell lines” (Eur J Med Chem, 2018):
The source made the active and inactive calls. The calls are words filed in the database; no cut-off is given here.

Experiments:
[1] = target: T1, Alpha-galactosidase A (Homo sapiens) (UniProt P06280); experiment: Inhibition of human recombinant alpha-galactosidase A at 100 uM using 4-MU-alpha-d-galactopyranoside as substrate by fluorescence assay relative to control
T1 sequence (whole entry): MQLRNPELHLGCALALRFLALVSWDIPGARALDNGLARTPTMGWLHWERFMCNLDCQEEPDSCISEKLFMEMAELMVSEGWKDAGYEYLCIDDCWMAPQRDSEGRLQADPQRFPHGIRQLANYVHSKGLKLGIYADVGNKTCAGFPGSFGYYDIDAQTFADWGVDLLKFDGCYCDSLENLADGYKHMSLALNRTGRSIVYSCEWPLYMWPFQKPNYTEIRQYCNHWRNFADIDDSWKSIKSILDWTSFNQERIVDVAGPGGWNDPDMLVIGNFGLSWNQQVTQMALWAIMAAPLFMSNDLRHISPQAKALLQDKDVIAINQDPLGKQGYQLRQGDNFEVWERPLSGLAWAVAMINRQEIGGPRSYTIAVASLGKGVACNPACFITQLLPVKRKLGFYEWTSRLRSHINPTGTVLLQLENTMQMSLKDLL

[2] = target: T2, Alpha-glucosidase (Geobacillus stearothermophilus) (UniProt P94451); experiment: Inhibition of Bacillus stearothermophilus alpha-glucosidase at 100 uM using 4-MU-glycopyranoside as substrate by spectrophotometric analysis
T2 sequence (whole entry): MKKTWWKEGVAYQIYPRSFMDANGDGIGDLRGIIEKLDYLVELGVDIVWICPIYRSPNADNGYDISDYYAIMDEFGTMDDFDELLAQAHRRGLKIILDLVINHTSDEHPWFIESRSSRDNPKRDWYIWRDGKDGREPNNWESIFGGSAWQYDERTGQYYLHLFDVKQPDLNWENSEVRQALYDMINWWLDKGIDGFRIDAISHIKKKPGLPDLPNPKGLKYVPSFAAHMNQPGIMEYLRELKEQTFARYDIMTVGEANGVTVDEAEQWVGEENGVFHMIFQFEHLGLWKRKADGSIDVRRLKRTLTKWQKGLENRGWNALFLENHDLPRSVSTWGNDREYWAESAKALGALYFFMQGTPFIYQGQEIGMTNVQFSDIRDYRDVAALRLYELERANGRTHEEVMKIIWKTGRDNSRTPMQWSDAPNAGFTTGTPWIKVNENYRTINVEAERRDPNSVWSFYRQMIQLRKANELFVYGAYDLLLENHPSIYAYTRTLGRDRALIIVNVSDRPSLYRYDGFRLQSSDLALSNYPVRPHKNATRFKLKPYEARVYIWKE

[3] = target: Lysosomal alpha-glucosidase (Homo sapiens) (UniProt P10253); experiment: Inhibition of human recombinant acid alpha-glucosidase at 100 uM using 4-MU-glycopyranoside as substrate by spectrophotometric analysis
[4] = target: T3, Lysosomal acid glucosylceramidase (Homo sapiens) (UniProt P04062); experiment: Inhibition of human recombinant acid beta-glucosidase at 100 uM using 4-MU-glycopyranoside as substrate by spectrophotometric analysis
T3 sequence (whole entry): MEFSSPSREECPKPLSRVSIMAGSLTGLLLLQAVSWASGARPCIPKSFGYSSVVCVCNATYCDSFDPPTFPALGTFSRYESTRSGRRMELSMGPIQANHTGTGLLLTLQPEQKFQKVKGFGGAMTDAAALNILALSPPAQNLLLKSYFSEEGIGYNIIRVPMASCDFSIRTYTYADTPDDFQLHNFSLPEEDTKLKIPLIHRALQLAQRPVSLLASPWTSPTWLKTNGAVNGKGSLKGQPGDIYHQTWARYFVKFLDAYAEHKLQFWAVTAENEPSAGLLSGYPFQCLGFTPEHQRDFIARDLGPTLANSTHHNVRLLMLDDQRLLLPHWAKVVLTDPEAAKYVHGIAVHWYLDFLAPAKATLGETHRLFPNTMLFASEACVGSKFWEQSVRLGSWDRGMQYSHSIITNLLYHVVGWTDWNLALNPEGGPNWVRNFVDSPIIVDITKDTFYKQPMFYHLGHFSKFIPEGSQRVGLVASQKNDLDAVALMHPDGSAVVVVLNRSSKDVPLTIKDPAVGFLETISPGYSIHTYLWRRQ

[5] = target: Alpha-galactosidase (Coffea arabica) (UniProt Q42656); experiment: Inhibition of green coffee beans alpha-galactosidase at 100 uM using 4-MU-glycopyranoside as substrate by spectrophotometric analysis relative to control
Sequence of Alpha-galactosidase (Coffea arabica) (Q42656 16-378 limits assumed): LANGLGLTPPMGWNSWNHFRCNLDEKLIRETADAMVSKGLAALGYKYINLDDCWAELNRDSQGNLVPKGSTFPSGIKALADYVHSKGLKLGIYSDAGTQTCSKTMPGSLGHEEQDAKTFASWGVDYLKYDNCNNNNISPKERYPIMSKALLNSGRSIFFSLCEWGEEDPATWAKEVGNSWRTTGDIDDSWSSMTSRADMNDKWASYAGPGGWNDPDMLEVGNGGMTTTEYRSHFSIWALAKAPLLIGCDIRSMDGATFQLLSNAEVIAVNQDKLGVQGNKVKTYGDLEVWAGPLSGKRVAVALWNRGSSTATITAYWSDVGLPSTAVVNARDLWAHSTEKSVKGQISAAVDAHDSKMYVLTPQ

[6] = target: T4, Beta-galactosidase (Homo sapiens) (UniProt P16278); experiment: Inhibition of human lymphocyte beta-galactosidase at 100 uM using 4-MU-glycopyranoside as substrate by spectrophotometric analysis
T4 sequence (whole entry): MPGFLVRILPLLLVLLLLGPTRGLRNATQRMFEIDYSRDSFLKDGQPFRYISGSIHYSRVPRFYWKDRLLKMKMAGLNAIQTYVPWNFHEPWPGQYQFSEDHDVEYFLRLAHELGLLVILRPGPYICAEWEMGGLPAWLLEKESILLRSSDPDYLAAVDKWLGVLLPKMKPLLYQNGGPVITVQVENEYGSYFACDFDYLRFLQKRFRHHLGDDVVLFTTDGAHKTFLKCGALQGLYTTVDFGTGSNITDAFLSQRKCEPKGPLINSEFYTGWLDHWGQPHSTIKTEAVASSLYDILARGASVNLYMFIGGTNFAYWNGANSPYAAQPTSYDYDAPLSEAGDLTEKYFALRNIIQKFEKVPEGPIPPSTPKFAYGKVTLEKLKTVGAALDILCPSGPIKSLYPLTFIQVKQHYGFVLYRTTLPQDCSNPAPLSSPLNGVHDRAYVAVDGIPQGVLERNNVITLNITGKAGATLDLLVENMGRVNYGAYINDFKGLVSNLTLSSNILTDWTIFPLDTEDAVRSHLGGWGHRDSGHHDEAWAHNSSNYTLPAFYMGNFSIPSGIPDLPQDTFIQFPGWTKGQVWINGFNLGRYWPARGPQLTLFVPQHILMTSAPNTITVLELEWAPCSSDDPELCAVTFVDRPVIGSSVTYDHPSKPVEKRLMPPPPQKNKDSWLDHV

[7] = target: T5, Lysosomal alpha-mannosidase (Homo sapiens) (UniProt O00754); experiment: Inhibition human recombinant acid alpha-mannosidase at 100 uM using p-nitrophenyl-glycopyranoside as substrate by spectrophotometric analysis
T5 sequence (whole entry): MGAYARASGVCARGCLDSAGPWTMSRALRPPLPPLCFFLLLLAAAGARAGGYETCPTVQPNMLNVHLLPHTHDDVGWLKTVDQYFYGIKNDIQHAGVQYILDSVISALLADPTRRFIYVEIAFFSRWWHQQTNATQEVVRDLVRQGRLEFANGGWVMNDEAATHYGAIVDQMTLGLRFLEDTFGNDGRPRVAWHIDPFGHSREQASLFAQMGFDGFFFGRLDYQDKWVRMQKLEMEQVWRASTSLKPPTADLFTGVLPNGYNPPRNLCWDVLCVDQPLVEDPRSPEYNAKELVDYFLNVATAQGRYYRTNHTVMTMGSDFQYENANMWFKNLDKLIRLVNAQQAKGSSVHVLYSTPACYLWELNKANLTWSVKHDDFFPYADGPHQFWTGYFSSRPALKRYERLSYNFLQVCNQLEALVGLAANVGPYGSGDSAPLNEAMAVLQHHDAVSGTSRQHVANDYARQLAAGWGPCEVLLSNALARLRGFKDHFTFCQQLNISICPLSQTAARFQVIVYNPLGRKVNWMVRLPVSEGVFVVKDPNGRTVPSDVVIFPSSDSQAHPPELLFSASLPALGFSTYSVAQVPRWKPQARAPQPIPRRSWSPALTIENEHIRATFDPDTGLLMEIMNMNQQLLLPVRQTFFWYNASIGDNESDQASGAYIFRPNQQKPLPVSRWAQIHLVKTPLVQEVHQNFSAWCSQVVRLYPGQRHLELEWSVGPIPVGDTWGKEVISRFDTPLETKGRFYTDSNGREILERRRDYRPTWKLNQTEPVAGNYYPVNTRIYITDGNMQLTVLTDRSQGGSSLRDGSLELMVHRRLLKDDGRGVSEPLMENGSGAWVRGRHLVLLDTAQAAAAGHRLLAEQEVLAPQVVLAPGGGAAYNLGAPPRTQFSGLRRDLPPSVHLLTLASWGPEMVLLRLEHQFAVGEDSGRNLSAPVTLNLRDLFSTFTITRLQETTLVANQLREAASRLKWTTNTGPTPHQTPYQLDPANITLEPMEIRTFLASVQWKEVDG

[8] = test system: Lymphocyte; experiment: Cytotoxicity against human lymphocytes at 100 uM after 48 to 72 hrs by AlamarBlue assay; assay type: cell-based

- inhibition [1]: 99%
- inhibition [2]: inactive
- inhibition [3]: inactive
- inhibition [4]: inactive
- inhibition [5]: 57%
- inhibition [6]: inactive
- inhibition [7]: inactive
Compound: COc1ccc(OC)c(/C=C/C(=O)NC[C@H]2NC[C@H](O)[C@@H](O)[C@H]2O)c1
- Activity [8]: Non-Toxic
